Reference: ChEMBL document CHEMBL1127769, “Synthesis of new pyrazolo[4,3-e]1,2,4-triazolo[1,5-c] pyrimidine and 1,2,3-triazolo[4,5-e]1,2,4-triazolo[1,5-c] pyrimidine displaying potent and selective activity as A2a adenosine receptor antagonists” (Bioorg Med Chem Lett, 1994)

Tests used:
Adenosine receptor A2a [1] = molecular target: T1, Adenosine receptor A2a (Rattus norvegicus, UniProt P30543)
Description: Binding ability of adenosine A2a receptor by using [3H]-CGS- as radioligand in rat striatal homogenate

Adenosine receptor A1 = molecular target: T2, Adenosine receptor A1 (Rattus norvegicus, UniProt P25099); test: biochemical
T2 sequence (P25099 whole entry): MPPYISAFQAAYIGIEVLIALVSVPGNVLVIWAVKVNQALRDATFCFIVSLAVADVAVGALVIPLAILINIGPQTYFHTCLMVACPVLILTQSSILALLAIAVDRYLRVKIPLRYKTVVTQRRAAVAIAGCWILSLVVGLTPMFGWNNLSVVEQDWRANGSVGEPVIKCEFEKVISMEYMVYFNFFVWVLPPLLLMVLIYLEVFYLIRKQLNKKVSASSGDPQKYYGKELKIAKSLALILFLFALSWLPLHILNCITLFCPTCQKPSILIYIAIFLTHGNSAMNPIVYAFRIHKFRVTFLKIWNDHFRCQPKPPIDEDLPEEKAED
Description: Binding ability of adenosine A1 receptor by using [3H]CHA as radioligand in rat whole brain homogenate

Adenosine receptor A2a [2] = molecular target: T1, Adenosine receptor A2a; test: Displacement of [3H]-CGS- from Adenosine A2a receptor of rat striatal homogenate

T1 sequence (P30543 whole entry): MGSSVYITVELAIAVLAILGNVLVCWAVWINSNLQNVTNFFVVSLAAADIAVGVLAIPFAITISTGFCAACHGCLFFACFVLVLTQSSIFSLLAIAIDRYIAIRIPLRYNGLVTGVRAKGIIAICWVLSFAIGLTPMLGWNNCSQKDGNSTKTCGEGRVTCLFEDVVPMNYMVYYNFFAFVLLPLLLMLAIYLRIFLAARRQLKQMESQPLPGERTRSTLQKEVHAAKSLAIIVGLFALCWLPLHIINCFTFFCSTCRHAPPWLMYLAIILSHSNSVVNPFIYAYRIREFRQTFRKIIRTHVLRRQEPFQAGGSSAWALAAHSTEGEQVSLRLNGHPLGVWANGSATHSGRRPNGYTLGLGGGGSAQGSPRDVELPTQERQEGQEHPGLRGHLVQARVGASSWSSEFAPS

| SMILES | Ki (Adenosine receptor A2a [1]) | Ki (Adenosine receptor A1) | Ki (Adenosine receptor A2a [2]) |
| --- | --- | --- | --- |
| CCCCn1ncc2c1nc(N)n1nc(-c3ccco3)nc21 | 8.9 nM | 236 nM | – |
| Cn1ncc2c1nc(N)n1nc(-c3ccco3)nc21 | 101 nM | 651 nM | – |
| Nc1nc2nn(Cc3ccc(F)cc3)cc2c2nc(-c3ccco3)nn12 | 1.2 nM | 3.3 nM | – |
| Nc1nc2nn(Cc3ccc(F)cc3)nc2c2nc(-c3ccco3)nn12 | 2.5 nM | 18.3 nM | – |
| Nc1nc2c(nnn2Cc2ccc(F)cc2)c2nc(-c3ccco3)nn12 | 13.7 nM | 61.2 nM | – |
| Nc1nc2c(nnn2CCc2ccccc2)c2nc(-c3ccco3)nn12 | 6.9 nM | 42.4 nM | – |
| CC(C)CCn1ncc2c1nc(N)n1nc(-c3ccco3)nc21 | 12 nM | 116 nM | – |
| Nc1nc2ccc(Cl)cc2c2nc(-c3ccco3)nn12 [CGS-15943] | – | – | 1.2 nM |

Continued, in another order:

| Ki (Adenosine receptor A2a [1]) | Ki (Adenosine receptor A1) | SMILES | Ki (Adenosine receptor A2a [2]) |
| --- | --- | --- | --- |
| 1.4 nM | 4.7 nM | Nc1nc2nn(CCc3ccccc3)cc2c2nc(-c3ccco3)nn12 | – |
| 2.4 nM | 30.4 nM | CCCCn1cc2c(nc(N)n3nc(-c4ccco4)nc23)n1 | – |
| – | 5.6 nM | CC(C)CCn1cc2c(nc(N)n3nc(-c4ccco4)nc23)n1 | – |
| 4.6 nM | 6.1 nM | Nc1nc2c(nnn2Cc2ccccc2)c2nc(-c3ccco3)nn12 | – |
| 4.9 nM | 19 nM | Nc1nc2c(nnn2Cc2cccc(F)c2)c2nc(-c3ccco3)nn12 | – |
| 10.4 nM | 13.7 nM | Nc1nc2c(nnn2Cc2ccccc2F)c2nc(-c3ccco3)nn12 | – |
